Laboratory results as given in patent US20220017861A1, “UREMIC VASCULOPATHY MODEL USING ENDOTHELIAL CELLS DERIVED FROM INDUCED PLURIPOTENT STEM CELLS AND UREMIC COMPLEX, AND USE THEREOF” (SAMSUNG LIFE PUBLIC WELFARE FOUNDATION, priority 2018, published 2022).
Counter-ions that a name gives are not always drawn.

Tests used:
Format in all cases: cell-based
[1] = test system: endothelial cells derived from normal control induced pluripotent stem cells; assay: Drug effect verification by tube formation in uremic vasculopathy endothelial cell model; settings: cells exposed to uremic toxin mixture or ESKD patient serum, then treated with drug, FIG. 11
Method: (§1) In order to evaluate the functional abnormality of endothelial cells that may form vascular structures, the tube formation ability was measured. After seeding endothelial cells into a 24 or 12-well plate applied with Matrigel (Corning, catalog number CB-40234). After 16 to 24 hours of incubation, the level of tube formation was compared and analyzed.
In order to confirm whether the effect of the drug can be verified using the uremic vasculopathy endothelial cell model prepared by treating with the uremic toxin mixture of the present invention, the uremic toxin mixture of the present invention or ESKD patient's serum was applied to endothelial cells derived from normal control induced pluripotent stem cells. Then, SD-208 (TGF-β inhibitor) and losartan (angiotensin receptor blocker) were treated to measure the level of tube formation in order to examine respective effects. The endothelial cells' tube formation ability was measured and compared in the uremic toxin mixture of the present invention (UT-F, UT-H, uric acid 3 (UA 3)), serum of patients with chronic kidney disease (patient 2, patient 4), normal control serum (control 1) and cell culture medium alone (media only).

[2] = test system: endothelial cells differentiated from induced pluripotent stem cells; assay: Tube formation ability of endothelial cells on Matrigel; settings: 16 to 24 hours of incubation on Matrigel, FIGS. 8 and 9
Method: as §1
In order to confirm the reliability and effectiveness of the uremic vasculopathy endothelial cell model prepared by treating endothelial cells with the uremic toxin mixture of the present invention, the level of tube formation was measured to compare effects of the serum of ESKD patient undergoing hemodialysis and the uremic toxin mixture of the present invention by measuring the tube formation level.

[3] = test system: endothelial cells differentiated from induced pluripotent stem cells; assay: Apoptosis of endothelial cells (Caspase-Glo 3/7 assay); settings: FIG. 7
Method: , apoptosis of endothelial cell was measured according to the manufactural instructions using the Caspase-Glo 3/7 assay systems kit (Promega, catalog number G8091), and the results are shown in FIG. 4.

Structure (SMILES): Fc1ccc(Cl)cc1-c1nc(Nc2ccncc2)c2nccnc2n1 [SD-208]
- inhibition of endothelial cell tube formation after drug treatment [1]: alleviated

Structure (SMILES): CCCCc1nc(Cl)c(CO)n1Cc1ccc(-c2ccccc2-c2nn[nH]n2)cc1 [losartan]
- inhibition of endothelial cell tube formation after drug treatment [1]: alleviated

Structure (SMILES): O=c1[nH]c(=O)c2[nH]c(=O)[nH]c2[nH]1 [uric acid, Uric acid]
- tube formation ability of endothelial cells [2]: well maintained
- apoptosis of endothelial cells ([3]; single uremic toxin at 1 mM): significantly promoted

Structure (SMILES): O=S(=O)(O)Oc1c[nH]c2ccccc12 [indoxyl sulfate, Indoxyl sulfate]
- apoptosis of endothelial cells ([3]; single uremic toxin at 1 mM): not significantly promoted

Structure (SMILES): NC(N)=O [urea, Urea]
- apoptosis of endothelial cells ([3]; single uremic toxin at 50 mM): not significantly promoted
